In patent US20250221998A1, “DISCOVERY OF COVALENT EGFR INHIBITOR THROUGH CYSTEINE 775” (Dana-Farber Cancer Institute, Inc., priority 2022, published 2025):

What was measured:
[1] = molecular target: EGFR L858R/C797S Ba/F3 cells (Homo sapiens, UniProt P00533, C797S/L858R, cells depend on it); experiment: Ba/F3 cell proliferation (Cell Titer Glo), EGFR L858R/C797S; format: cell-based, murine; conditions: 72 hours exposure, read-out: L858R/C797S (μM), inhibitory activity against EGFR mutants
From the text: (§1) The EGFR mutant L858R Ba/F3 cells have been previously described (Zhou, W., et al. Nature 462, 2009, 1070-1074). The EGFR C797S and C775S mutations were introduced via site directed mutagenesis using the Quick Change Site-Directed Mutagenesis kit into a vector containing EGFR L858R mutation (Stratagene; La Jolla, CA) according to the manufacturer's instructions. All constructs were confirmed by DNA sequencing. The constructs were then shuttled into the retroviral vector JP1540 by either using the Cre-recombination system (Agilent Technologies, Santa Clara, CA) or the In-fusion HD Cloning kit (Takara Bio USA, Inc.; Mountain view, CA). Ba/F3 cells were then infected with retrovirus per standard protocols, as described previously (Zhou, et al, Nature 2009). Stable clones were obtained by selection in puromycin (2 ug/ml). All BaF/3 mutant cells were maintained in RPMI 1640 (Cellgro; Mediatech Inc., Herndon, CA) supplemented with 10% FBS, 100 units/mL penicillin, 100 units/mL streptomycin.
(§2) Growth and inhibition of growth was assessed by the Cell Titer Glo assay (Promega, Madison, WI) and was performed according to the manufacturer's instructions. The Cell Titer Glo assay is a luminescence-based method used to determine the number of viable cells based on quantitation of the ATP present, which is directly proportional to the amount of metabolically active cells present. Ba/F3 cells of different EGFR genotypes were exposed to compounds for 72 hours and the number of cells used per experiment was determined empirically as has been previously established (Zhou, et al., Nature 2009). All experimental points were set up in triplicates in 384-well plates. […] The curves were fitted using a non-linear regression model with a sigmoidal dose response.
(§3) For inhibitory activity against EGFR mutants, the following designations are used: ≤0·25 μM=A, 0·25 μM˜0.5 μM=B, 0.5 μM˜2.5 μM=C, ≥2.5 μM=D.

[2] = molecular target: EGFR mutant L858R Ba/F3 cells (Homo sapiens, UniProt P00533, L858R, cells depend on it); experiment: Ba/F3 cell proliferation (Cell Titer Glo), EGFR L858R; format: cell-based, murine; conditions: 72 hours exposure, read-out: L858R BaF3 (μM), inhibitory activity against EGFR mutants
From the text: as §1, §2, §3

Sequence of EGFR mutant L858R Ba/F3 cells (P00533 whole entry L858R): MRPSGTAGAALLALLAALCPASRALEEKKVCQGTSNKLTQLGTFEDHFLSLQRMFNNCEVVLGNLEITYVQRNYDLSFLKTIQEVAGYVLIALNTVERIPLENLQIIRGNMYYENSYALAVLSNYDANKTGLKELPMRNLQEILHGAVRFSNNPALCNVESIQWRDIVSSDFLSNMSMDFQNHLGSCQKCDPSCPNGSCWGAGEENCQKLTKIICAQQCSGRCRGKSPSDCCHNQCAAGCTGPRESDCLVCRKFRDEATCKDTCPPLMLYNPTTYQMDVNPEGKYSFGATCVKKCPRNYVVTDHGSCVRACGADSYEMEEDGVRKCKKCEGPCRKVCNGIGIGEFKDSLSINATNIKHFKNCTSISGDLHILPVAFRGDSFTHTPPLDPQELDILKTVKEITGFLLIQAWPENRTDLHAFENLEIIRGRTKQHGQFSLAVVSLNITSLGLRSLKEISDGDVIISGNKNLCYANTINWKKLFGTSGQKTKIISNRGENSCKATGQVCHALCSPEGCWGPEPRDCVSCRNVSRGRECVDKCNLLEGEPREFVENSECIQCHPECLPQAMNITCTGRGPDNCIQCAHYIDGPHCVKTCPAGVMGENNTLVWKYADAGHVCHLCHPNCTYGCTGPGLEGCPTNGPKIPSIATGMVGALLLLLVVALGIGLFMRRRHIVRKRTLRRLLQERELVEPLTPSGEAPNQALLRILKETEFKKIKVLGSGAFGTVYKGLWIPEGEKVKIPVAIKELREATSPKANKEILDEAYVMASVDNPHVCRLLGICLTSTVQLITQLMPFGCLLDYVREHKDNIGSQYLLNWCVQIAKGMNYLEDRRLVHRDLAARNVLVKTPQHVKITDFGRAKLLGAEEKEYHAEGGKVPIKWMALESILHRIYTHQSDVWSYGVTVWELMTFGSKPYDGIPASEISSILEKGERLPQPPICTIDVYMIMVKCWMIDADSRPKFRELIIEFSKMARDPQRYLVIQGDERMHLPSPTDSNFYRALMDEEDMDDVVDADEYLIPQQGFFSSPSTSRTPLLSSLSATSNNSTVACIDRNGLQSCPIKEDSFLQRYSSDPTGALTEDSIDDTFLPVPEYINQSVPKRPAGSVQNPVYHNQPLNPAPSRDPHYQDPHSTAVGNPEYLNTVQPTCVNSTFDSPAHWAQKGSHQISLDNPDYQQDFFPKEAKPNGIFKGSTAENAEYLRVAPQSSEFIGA
Sequence of EGFR L858R/C797S Ba/F3 cells (P00533 whole entry C797S/L858R, the tested form may be a part): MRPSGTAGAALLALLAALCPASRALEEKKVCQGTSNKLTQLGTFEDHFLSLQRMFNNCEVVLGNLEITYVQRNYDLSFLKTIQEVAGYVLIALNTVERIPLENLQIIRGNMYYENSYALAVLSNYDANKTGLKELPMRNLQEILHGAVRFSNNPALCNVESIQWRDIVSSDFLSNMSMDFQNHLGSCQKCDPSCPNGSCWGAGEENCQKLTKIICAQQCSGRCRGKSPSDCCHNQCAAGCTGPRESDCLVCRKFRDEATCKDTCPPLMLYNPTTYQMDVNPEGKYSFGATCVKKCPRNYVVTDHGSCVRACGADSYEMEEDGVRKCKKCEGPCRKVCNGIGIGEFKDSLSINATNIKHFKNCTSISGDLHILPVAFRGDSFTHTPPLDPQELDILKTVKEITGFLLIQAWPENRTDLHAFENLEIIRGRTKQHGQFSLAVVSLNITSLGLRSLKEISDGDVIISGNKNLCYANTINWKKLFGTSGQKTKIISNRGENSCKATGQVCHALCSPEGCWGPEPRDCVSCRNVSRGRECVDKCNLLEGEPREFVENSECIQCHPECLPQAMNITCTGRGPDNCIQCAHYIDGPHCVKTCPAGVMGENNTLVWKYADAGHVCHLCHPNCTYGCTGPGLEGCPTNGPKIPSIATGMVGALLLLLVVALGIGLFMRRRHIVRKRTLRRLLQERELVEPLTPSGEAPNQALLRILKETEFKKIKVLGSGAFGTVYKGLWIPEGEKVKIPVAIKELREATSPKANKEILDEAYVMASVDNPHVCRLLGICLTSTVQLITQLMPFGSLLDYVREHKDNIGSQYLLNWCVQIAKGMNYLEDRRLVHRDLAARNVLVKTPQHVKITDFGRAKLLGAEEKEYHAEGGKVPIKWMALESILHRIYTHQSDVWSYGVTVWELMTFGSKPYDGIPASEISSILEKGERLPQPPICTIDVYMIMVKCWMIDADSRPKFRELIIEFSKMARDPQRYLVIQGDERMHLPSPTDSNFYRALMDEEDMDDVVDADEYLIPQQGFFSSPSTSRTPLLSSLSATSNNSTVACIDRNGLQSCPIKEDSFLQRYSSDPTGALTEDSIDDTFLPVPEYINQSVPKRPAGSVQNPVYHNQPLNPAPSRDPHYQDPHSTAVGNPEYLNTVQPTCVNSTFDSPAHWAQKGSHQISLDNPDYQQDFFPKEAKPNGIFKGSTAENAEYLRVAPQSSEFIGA

Compound | GI50 [1] [µM] | GI50 [2] [µM]
C=CC(=O)N1CCN(c2cc3cnc(Nc4ccc(OCCN(C)C)cc4)nc3n(C3CC(F)(F)C3)c2=O)c2cccc(C)c21 [Compound 055, 8-(3,3-difluorocyclobutyl)-2-[4-[2-(dimethylamino)ethoxy]anilino]-6-(5-methyl-4-prop-2-enoyl-2,3-dihydroquinoxalin-1-yl)pyrido[2,3-d]pyrimidin-7-one] | ≤ 0.25 | ≤ 0.25
C=CC(=O)N1CCN(c2cc3cnc(Nc4ccc(OCCN(C)C)cc4)nc3n([C@H]3C[C@@](C)(O)C3)c2=O)c2cccc(C)c21 [Compound 056, 2-[4-[2-(dimethylamino)ethoxy]anilino]-8-((1s,3s)-3-hydroxy-3-methyl-cyclobutyl)-6-(5-methyl-4-prop-2-enoyl-2,3-dihydroquinoxalin-1-yl)pyrido[2,3-d]pyrimidin-7-one] | ≤ 0.25 | ≤ 0.25
C=CC(=O)N1CCN(c2cc3cnc(Nc4ccc(OCCN(C)C)cc4)nc3n([C@H]3C[C@](C)(O)C3)c2=O)c2cccc(C)c21 [Compound 057, 2-[4-[2-(dimethylamino)ethoxy]anilino]-8-((1r,3r)-3-hydroxy-3-methyl-cyclobutyl)-6-(5-methyl-4-prop-2-enoyl-2,3-dihydroquinoxalin-1-yl)pyrido[2,3-d]pyrimidin-7-one] | ≤ 0.25 | ≤ 0.25
C=CC(=O)N1CCN(c2cc3cnc(Nc4ccc(OCCN(C)C)cc4)nc3n(CC(C)(C)O)c2=O)c2cccc(C)c21 [Compound 058, 2-[4-[2-(dimethylamino)ethoxy]anilino]-8-(2-hydroxy-2-methyl-propyl)-6-(5-methyl-4-prop-2-enoyl-2,3-dihydroquinoxalin-1-yl)pyrido[2,3-d]pyrimidin-7-one] | ≤ 0.25 | ≤ 0.25
C=CC(=O)N1CCN(c2cc3cnc(Nc4ccc(OCCN(C)C)cc4)nc3n(C3COC3)c2=O)c2cccc(C)c21 [Compound 060, 2-[4-[2-(dimethylamino)ethoxy]anilino]-6-(5-methyl-4-prop-2-enoyl-2,3-dihydroquinoxalin-1-yl)-8-(oxetan-3-yl)pyrido[2,3-d]pyrimidin-7-one] | 0.5 to 2.5 | 0.25 to 0.5
C=CC(=O)N1CCN(c2cc3cnc(Nc4cc(OC)ncc4C)nc3n(C)c2=O)c2cccc(C)c21 [Compound 063] | 0.5 to 2.5 | 0.25 to 0.5

Further lines, results first:

GI50 [1] [µM] | GI50 [2] [µM] | Compound
≤ 0.25 | ≤ 0.25 | C=CC(=O)N1CCN(c2c(F)c3cnc(Nc4ccc(N5CCN(C)CC5)cc4)nc3n(C)c2=O)c2cccc(C)c21 [Compound 054, 5-fluoro-8-methyl-2-[4-(4-methylpiperazin-1-yl)anilino]-6-(5-methyl-4-prop-2-enoyl-2,3-dihydroquinoxalin-1-yl)pyrido[2,3-d]pyrimidin-7-one]
≤ 0.25 | ≤ 0.25 | C=CC(=O)N1CCN(c2c(F)c3cnc(Nc4ccc(N5CCN(C)CC5)cc4)nc3n(C)c2=O)c2c(F)cc(F)c(C)c21 [Compound 059, 6-(6,8-difluoro-5-methyl-4-prop-2-enoyl-2,3-dihydroquinoxalin-1-yl)-5-fluoro-8-methyl-2-[4-(4-methylpiperazin-1-yl)anilino]pyrido[2,3-d]pyrimidin-7-one]
≤ 0.25 | ≤ 0.25 | C=CC(=O)N1CCN(c2cc3cnc(Nc4cc5c(cc4F)CCN(C)C5)nc3n(C)c2=O)c2cccc(C)c21 [Compound 061, 2-[(6-fluoro-2-methyl-3,4-dihydro-1H-isoquinolin-7-yl)amino]-8-methyl-6-(5-methyl-4-prop-2-enoyl-2,3-dihydroquinoxalin-1-yl)pyrido[2,3-d]pyrimidin-7-one]
≤ 0.25 | ≤ 0.25 | C=CC(=O)N1CCN(c2cc3cnc(Nc4ccnc(OC)c4)nc3n(C)c2=O)c2cccc(C)c21 [Compound 062]
0.25 to 0.5 | ≤ 0.25 | C=CC(=O)Nc1c(O)cccc1Oc1cc2cnc(Nc3ccc(N4CCN(C)CC4)cc3)nc2n(C)c1=O [Compound 064, N-[2-hydroxy-6-[8-methyl-2-[4-(4-methylpiperazin-1-yl)anilino]-7-oxo-pyrido[2,3-d]pyrimidin-6-yl]oxy-phenyl]prop-2-enamide]
